Measured values: ChEMBL document CHEMBL4828715, “Discovery, Structure-Activity Relationships, and In Vivo Evaluation of Novel Aryl Amides as Brain Penetrant Adaptor Protein 2-Associated Kinase 1 (AAK1) Inhibitors for the Treatment of Neuropathic Pain” (J Med Chem, 2021)

Assays:
[1] = biological target: AP2-associated protein kinase 1 (Homo sapiens, UniProt Q2M2I8); test: Inhibition of recombinant GST-Xa-tagged human AAK1 (30 to 330 residues) using 5-FAM-labelled Alla-KEEQSQITSQVTGQIGWR-NH2 peptide as substrate incubated for 3 hrs in presence of ATP by electrophoretic analysis
[2] = Metabolic stability in human liver microsomes assessed as parent compound remaining at 0.5 uM incubated for 10 mins in presence of NADPH by LC-MS/MS analysis; assay type: ADME, Microsome; conditions: read-out: Stability
[3] = Metabolic stability in rat liver microsomes assessed as parent compound remaining at 0.5 uM incubated for 10 mins in presence of NADPH by LC-MS/MS analysis; assay type: ADME, Microsome; conditions: read-out: Stability
[4] = Metabolic stability in mouse liver microsomes assessed as parent compound remaining at 0.5 uM incubated for 10 mins in presence of NADPH by LC-MS/MS analysis; assay type: ADME, Microsome; conditions: read-out: Stability
[5] = Permeability of the compound at pH 5.5 incubated for 4 hrs by PAMPA-based UV spectrophotometry; assay type: ADME; conditions: read-out: permeability
[6] = Permeability of the compound at pH 7.4 incubated for 4 hrs by PAMPA-based UV spectrophotometry; assay type: ADME; conditions: pampa, pH 7.4, 4 h

Chain of AP2-associated protein kinase 1 (Q2M2I8 whole entry, the tested form may be a part): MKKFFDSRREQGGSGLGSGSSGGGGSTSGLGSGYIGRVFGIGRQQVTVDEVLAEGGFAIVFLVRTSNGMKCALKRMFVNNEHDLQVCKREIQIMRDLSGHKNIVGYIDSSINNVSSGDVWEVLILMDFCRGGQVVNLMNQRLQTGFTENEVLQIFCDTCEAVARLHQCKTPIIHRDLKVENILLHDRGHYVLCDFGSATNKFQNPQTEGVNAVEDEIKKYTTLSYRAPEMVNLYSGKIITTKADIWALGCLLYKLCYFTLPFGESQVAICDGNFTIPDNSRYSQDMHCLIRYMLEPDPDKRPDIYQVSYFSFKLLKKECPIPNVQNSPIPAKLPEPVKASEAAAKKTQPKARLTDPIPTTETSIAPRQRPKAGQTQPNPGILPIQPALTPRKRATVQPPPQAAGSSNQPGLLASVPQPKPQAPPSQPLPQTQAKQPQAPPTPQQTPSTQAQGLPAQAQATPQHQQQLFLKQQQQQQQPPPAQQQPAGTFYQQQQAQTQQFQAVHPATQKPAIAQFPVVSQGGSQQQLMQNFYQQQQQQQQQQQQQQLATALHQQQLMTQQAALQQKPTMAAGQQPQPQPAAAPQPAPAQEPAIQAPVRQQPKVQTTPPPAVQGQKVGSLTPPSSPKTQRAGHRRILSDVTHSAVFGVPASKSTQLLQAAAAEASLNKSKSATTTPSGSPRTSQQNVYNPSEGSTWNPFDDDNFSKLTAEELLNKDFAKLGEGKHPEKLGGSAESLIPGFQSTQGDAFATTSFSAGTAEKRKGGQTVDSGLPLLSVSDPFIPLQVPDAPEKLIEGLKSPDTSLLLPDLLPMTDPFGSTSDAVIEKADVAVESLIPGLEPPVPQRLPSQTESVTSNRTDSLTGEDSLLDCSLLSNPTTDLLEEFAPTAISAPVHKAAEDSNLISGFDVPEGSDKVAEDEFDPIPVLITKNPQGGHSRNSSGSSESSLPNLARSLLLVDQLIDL

Row | SMILES | IC50 [1] [nM] | remaining at 10 min, 0.5 µM [2] [%] | remaining at 10 min, 0.5 µM [3] [%] | remaining at 10 min, 0.5 µM [4] [%] | Papp at 4 h [5] [×10⁻⁶ cm/s] | permeability [6]
1 | COc1cc(NC(=O)Cc2ccccc2)ccc1-c1cnco1 | 430 | 78 | 70 | 70 | – | –
2 | COc1cc(NC(=O)[C@H](N)CC2CC2)ccc1-c1cnco1 | 45 | 100 | 74 | 79 | – | –
3 | COc1cc(NC(=O)[C@H](N)CC2CCC2)ccc1-c1cnco1 | 33 | 70 | 58 | 53 | – | –
4 | CCC[C@@H](N)C(=O)Nc1ccc(-c2cnco2)c(OC)c1 | 90 | 87 | 63 | 49 | – | –
5 | CC[C@@H](N)C(=O)Nc1ccc(-c2cnco2)c(OC)c1 | 120 | 81 | 70 | 46 | – | –
6 | COc1cc(NC(=O)[C@H](N)CC(C)C)ccc1-c1ccncc1 | 85 | 91 | 77 | 65 | – | –
7 | COc1cc(NC(=O)[C@@H](N)CC(C)C)ccc1-c1cnco1 | 19 | 71 | 40 | 53 | – | –
8 | COc1cc(NC(=O)[C@H]2CCCCN2)ccc1-c1cnco1 | 550 | 94 | 37 | 1 | – | –
9 | Cc1cc(NC(=O)[C@H](N)CC(C)C)ccc1-c1cnco1 | 48 | 74 | 74 | 43 | – | –
10 | COc1cc(NC(=O)[C@H](N)CC(C)C)ccc1-n1ccnc1 | – | 92 | 86 | 87 | – | –
11 | COc1cc(NC(=O)[C@H](N)C2CCCC2)ccc1-c1cnco1 | 13 | 84 | 73 | 63 | – | –
12 | COc1cc(NC(=O)C(CN)CC(C)C)ccc1-c1cnco1 (stereo unspecified) | – | 97 | 63 | 78 | – | –
13 | COc1cc(NC(=O)[C@H](N)Cc2ccccc2)ccc1-c1cnco1 | 630 | 68 | 49 | 56 | – | –
14 | CC[C@@H](C)[C@@H](N)C(=O)Nc1ccc(-c2cnco2)c(OC)c1 | 31 | 86 | 62 | 81 | – | –
15 | COc1cc(NC(=O)[C@H](N)C2CCCCC2)ccc1-c1cnco1 | 18 | 69 | 66 | 67 | – | –
16 | COc1cc(NC(=O)[C@H](N)C(C)C)ccc1-c1cnco1 | – | 84 | 42 | 40 | – | –
17 | COc1cc(NC(=O)[C@H](N)CC(C)C)ccc1-c1ccncn1 | 290 | 71 | 52 | 40 | – | –
18 | COc1cc(NC(=O)[C@H](N)c2ccccc2)ccc1-c1cnco1 | 42 | 63 | 60 | 75 | – | –
19 | CCc1cc(NC(=O)[C@H](N)CC(C)C)ccc1-c1cnco1 | 100 | 88 | 70 | 45 | – | –
20 | COCCc1ccc(OCC(O)CNC(C)C)cc1 (stereo unspecified) [METOPROLOL] | – | – | – | – | 10.2 | 83.5 10^-6 cm/s
21 | CN[C@H](CC(C)C)C(=O)Nc1ccc(-c2cnco2)c(OC)c1 | 46 | 53 | 39 | 14 | – | –
22 | COc1cc(NC(=O)[C@H](N)CC(C)C)ccc1-c1cnn(C)c1 | 3900 | – | – | – | – | –
23 | CCC[C@H](N)C(=O)Nc1ccc(-c2cnco2)c(OC)c1 | 350 | 70 | 31 | 46 | – | –
24 | CC(C)C[C@@H](N)C(=O)Nc1ccc(-c2cnco2)cc1 | 170 | 87 | 71 | 45 | – | –
25 | CCOc1cc(NC(=O)[C@H](N)CC(C)C)ccc1-c1cnco1 | 13 | 64 | 60 | 54 | – | –
26 | CCCC[C@H](N)C(=O)Nc1ccc(-c2cnco2)c(OC)c1 | 260 | 65 | 54 | 43 | – | –
